Test results as given in publication PMC7666069 (Journal of medicinal chemistry, 2020).
Read-outs that look alike come from different tables or passages of the source.

Tests used:
CB1 receptor = settings: cited from earlier work
ion channels = settings: membrane pressure and direct binding; cited from earlier work
D1 = D1 (Homo sapiens, UniProt P21728); assay: PDSP receptor profiling; assay type: binding
AmpC β-lactamase = AmpC β-lactamase (Escherichia coli, UniProt P00811); assay: AmpC colloidal aggregation counter screen; assay type: biochemical; settings: low micromolar concentrations; with/without detergent
KOR = KOR (Homo sapiens, UniProt P41145); assay: PDSP receptor profiling; assay type: binding
MOR = MOR (Homo sapiens, UniProt P35372); assay: PDSP receptor profiling; assay type: binding
ɑ2b = biological target: T1, ɑ2b (Homo sapiens, UniProt P18089); assay: PDSP receptor profiling; assay type: binding
T1 sequence (P18089 1-450): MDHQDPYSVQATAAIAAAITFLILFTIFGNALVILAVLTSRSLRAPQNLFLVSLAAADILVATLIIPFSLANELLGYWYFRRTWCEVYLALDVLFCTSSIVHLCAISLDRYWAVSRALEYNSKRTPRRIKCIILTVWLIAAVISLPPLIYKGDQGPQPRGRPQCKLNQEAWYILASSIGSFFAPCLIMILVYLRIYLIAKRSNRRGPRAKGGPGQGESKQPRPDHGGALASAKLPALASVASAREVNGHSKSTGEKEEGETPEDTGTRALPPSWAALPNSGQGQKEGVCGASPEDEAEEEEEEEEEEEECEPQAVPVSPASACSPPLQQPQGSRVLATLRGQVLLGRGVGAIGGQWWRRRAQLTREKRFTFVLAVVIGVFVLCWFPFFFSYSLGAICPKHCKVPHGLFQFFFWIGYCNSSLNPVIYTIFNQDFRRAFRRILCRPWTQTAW

[1] = cited from earlier work; for apparent plasma clearance (CL'): oromucosal spray
[2] = tested on: malate dehydrogenase (MDH); assay: MDH orthogonal aggregation counter screen; assay type: biochemical; settings: 33 or 100 μM; presence or absence of 0.01% Triton X-100
H3 = H3 (Homo sapiens, UniProt Q9Y5N1); assay: PDSP receptor profiling; assay type: binding
DOR = DOR (Homo sapiens, UniProt P41143); assay: PDSP receptor profiling; assay type: binding
[3] = cited from earlier work
[4] = Colloidal aggregate detection by dynamic light scattering; assay type: physicochemical; settings: critical aggregation concentration can vary several-fold with conditions
[5] = patients with schizophrenia, 800 mg/day, not placebo-controlled; cited from earlier work
ɑ2C = biological target: T2, ɑ2C (Homo sapiens, UniProt P18825); assay: PDSP receptor profiling; assay type: binding
T2 sequence (P18825 1-462): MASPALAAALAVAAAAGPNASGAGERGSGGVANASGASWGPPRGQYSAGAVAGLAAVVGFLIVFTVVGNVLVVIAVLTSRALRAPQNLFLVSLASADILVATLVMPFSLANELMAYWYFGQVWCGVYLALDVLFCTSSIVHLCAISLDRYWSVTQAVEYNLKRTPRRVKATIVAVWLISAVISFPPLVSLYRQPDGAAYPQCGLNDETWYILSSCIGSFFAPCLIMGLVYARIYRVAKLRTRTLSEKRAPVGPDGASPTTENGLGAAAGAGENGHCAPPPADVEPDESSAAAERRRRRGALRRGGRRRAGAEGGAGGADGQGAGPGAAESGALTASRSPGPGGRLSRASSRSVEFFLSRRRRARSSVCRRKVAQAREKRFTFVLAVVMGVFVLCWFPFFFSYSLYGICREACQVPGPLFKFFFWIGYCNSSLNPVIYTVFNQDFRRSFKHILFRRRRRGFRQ

mice = settings: oral single 246–2460 mg/kg or 61.5–615 mg/kg for 10 days; cited from earlier work
5-HT2C = biological target: T3, 5-HT2C (Homo sapiens, UniProt P28335); assay: PDSP receptor profiling; assay type: binding
T3 sequence (P28335 33-458): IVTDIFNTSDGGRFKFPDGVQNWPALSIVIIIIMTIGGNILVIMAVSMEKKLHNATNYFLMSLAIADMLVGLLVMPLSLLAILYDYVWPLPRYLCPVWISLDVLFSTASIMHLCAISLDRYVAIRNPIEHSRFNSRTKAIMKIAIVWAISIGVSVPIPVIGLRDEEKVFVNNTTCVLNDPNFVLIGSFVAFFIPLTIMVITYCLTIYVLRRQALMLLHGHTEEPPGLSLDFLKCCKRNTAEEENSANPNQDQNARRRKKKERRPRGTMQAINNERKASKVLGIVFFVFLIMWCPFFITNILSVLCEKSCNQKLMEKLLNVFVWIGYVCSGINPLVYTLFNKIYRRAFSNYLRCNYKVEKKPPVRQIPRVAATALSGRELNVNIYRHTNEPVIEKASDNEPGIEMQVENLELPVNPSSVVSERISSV

[6] = room temperature; air oxidation to cannabidiol hydroxyquinone; cited from earlier work
5-HT1A receptor = settings: displacement of agonist [3H]-8-OH-DPAT; cited from earlier work
σ2 = biological target: T4, σ2 (Rattus norvegicus, UniProt Q5U3Y7); assay: PDSP receptor profiling; assay type: binding
T4 sequence (Q5U3Y7 1-176): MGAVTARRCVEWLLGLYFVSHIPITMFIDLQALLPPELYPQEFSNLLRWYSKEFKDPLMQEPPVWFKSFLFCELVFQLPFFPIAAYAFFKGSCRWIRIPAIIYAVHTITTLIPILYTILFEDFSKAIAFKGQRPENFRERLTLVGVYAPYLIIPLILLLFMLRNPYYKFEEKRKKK

CB2 receptor = settings: cited from earlier work

Sequence of DOR (P41143 whole entry): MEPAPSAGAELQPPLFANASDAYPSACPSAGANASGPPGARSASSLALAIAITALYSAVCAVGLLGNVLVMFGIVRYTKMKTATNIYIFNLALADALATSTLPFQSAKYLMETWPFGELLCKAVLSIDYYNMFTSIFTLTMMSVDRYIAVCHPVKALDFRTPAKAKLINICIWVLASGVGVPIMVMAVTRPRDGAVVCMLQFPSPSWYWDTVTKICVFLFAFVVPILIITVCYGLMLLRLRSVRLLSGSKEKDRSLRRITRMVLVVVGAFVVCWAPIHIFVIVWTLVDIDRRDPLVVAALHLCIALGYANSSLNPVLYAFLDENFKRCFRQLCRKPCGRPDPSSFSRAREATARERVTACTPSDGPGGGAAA
Sequence of AmpC β-lactamase (P00811 20-377): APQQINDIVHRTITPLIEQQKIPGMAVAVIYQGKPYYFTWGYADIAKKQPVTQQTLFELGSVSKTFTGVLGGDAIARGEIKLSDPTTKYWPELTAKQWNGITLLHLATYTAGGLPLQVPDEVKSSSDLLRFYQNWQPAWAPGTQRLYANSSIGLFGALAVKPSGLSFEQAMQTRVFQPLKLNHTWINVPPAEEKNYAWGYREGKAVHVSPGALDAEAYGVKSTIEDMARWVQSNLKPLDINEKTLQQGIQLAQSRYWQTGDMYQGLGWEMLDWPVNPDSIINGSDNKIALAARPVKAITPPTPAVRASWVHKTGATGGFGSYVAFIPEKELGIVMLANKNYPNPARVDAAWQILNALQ
Sequence of KOR (P41145 whole entry): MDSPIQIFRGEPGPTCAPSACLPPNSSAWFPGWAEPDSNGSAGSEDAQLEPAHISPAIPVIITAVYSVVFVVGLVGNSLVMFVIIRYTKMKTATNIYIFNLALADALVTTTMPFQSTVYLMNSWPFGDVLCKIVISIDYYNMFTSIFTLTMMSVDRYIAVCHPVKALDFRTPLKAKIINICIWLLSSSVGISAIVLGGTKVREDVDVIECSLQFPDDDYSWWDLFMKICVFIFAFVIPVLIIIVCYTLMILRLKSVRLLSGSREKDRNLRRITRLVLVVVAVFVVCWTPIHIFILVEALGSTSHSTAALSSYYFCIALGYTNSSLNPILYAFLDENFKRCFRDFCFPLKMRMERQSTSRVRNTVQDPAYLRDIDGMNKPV
Sequence of MOR (P35372 whole entry): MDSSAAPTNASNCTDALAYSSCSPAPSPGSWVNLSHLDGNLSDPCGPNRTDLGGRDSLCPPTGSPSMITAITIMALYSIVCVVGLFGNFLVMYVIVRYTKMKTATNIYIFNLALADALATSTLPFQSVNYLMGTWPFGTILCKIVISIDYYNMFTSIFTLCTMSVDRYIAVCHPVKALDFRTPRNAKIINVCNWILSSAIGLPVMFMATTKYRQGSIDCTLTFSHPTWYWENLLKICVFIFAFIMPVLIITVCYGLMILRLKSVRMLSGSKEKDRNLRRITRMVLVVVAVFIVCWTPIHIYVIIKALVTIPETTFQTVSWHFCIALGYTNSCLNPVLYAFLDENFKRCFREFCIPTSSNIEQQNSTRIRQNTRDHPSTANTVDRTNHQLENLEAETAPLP
Sequence of D1 (P21728 whole entry): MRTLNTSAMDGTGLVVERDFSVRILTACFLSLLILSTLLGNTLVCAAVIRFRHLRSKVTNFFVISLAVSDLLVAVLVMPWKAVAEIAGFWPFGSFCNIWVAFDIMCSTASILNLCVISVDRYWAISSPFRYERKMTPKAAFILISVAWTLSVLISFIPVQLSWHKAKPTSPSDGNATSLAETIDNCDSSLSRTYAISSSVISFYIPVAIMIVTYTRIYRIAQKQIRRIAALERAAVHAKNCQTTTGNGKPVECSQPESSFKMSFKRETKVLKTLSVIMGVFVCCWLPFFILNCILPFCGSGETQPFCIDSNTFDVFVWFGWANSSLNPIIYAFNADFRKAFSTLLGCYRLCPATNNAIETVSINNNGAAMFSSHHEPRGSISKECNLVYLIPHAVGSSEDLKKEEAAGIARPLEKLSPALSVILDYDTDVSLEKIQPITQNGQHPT
Sequence of H3 (Q9Y5N1 whole entry): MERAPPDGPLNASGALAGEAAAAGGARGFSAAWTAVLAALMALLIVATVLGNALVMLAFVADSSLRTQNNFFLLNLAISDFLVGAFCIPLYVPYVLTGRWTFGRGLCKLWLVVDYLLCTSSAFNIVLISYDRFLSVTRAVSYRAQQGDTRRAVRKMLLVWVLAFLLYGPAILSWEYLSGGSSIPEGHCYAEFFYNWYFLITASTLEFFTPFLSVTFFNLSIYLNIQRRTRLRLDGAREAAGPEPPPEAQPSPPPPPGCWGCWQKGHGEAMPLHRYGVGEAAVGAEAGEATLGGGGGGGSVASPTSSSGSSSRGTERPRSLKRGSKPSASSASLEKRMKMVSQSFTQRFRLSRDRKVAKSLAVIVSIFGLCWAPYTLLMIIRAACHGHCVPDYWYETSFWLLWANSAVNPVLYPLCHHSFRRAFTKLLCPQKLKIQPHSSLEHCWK

CCCCCc1cc(O)c([C@@H]2C=C(C)CC[C@H]2C(C)C)c(O)c1 [H2-CBD]
affinity for the CB1 receptor (CB1 receptor): moderate affinity

C=C(C)[C@@H]1CCC(C)=C[C@H]1c1c(O)cc(CCCCC)cc1O [CBD, Cannabidiol]
concentration at which CBD promiscuously affects ion channels (ion channels): 0.1 to 5 µM | inhibition at 10 µM (D1): > 50% | inhibition of AmpC β-lactamase (AmpC β-lactamase): detergent-sensitive inhibition | inhibition at 10 µM (KOR): > 50% | inhibition at 10 µM (MOR): > 50% | inhibition at 10 µM (ɑ2b): > 50% | plasma concentration ([1]; humans, single dose of an oral preparation containing 100 mg of CBD): 36 ng/mL and approximately 100 nM | volume of distribution ([1]; oromucosal spray formulations): 26,000–31,000 L | apparent plasma clearance (CL') ([1]; doses 5–20 mg): 2,500–4,700 L/h | apparent plasma clearance (CL') ([1]; fed state): 533 L/h | inhibition of malate dehydrogenase (MDH) [2]: detergent-sensitive inhibition | inhibition at 10 µM (H3): > 50% | inhibition at 10 µM (DOR): > 50% | concentration at which CBD promotes DDI and potentiates the action of many drugs [3]: 5 to 10 µM | concentration at which detectable colloidal aggregates form (DLS) [4]: approximately 12.5 μM | change in PANSS scores [5]: clinically-significant reduction | inhibition at 10 µM (ɑ2C): > 50% | number of genes altered in gene expression arrays (mice): > 50 genes | inhibition at 10 µM (5-HT2C): > 50% | chemical stability [6]: chemically unstable | EC50 (5-HT1A receptor): 8 to 16 µM | Ki (σ2): > 1000 nM | inhibition at 10 µM (σ2): > 50%

C=C(C)[C@H]1CCC(C)=C[C@@H]1c1c(O)cc(CCCCC)cc1O [(+)-CBD]
CB1 receptor affinity (CB1 receptor): below 1 μM | CB2 receptor affinity (CB2 receptor): below 1 μM
